# Laboratory results published in patent publication US20240115554A1, “METHODS FOR TREATING OBSTRUCTIVE HYPERTROPHIC CARDIOMYOPATHY” (Cytokinetics, Incorporated, priority 2022, published 2024).
# “Also recorded” adds a separate entry of the source.
# What was measured:
# [1] = target: cardiac myosin (Homo sapiens, UniProt P12883); assay: Preclinical models: myocardial contractility; conditions: preclinically in vitro and in vivo
# From the text: This mechanism of action may be therapeutically effective in conditions characterized by excessive hypercontractility, such as HCM (e.g., obstructive HCM, also referred to as oHCM).
# [2] = tested on: patients with symptomatic oHCM; assay: Open-label extension: echocardiography (LVOT-G, LVEF); type: in vivo, human
# Procedure: Patients were up-titrated to Dose 2 if either of the following conditions were met on echocardiography: (1) resting LVOT-G ≥30 mmHg and the biplane LVEF ≥50%; or (2) resting LVOT-G <30 mmHg, post-Valsalva LVOT-G ≥50 mmHg, and the biplane LVEF ≥50%. […] If LVEF was <50%, treatment was discontinued. If LVEF was <40%, treatment is interrupted.
# Ambulatory cardiac monitoring is performed on weeks 48, 96, 144, 192 and 240. Cardiac magnetic resonance is monitored at weeks 48, 144 and 240. (See FIG. 26).
# At Week 2, each patient has a truncated echocardiogram following administration of their dose. Patients are up-titrated to Dose 2 if post-Valsalva LVOT-G ≥30 mmHg, and the biplane LVEF ≥55%. […] If LVEF is <50%, treatment is discontinued.
# At Weeks 4, 6, 12, and every 12 weeks thereafter, each patient has an echocardiogram or truncated echocardiogram following administration of their dose (a truncated echocardiogram at weeks 4 and 6; and an echocardiogram at week 12 and every 12 weeks thereafter) to determine whether additional dose titration is needed (see Table 21 and Table 22). Patient reported outcomes, laboratory assessments, measurements of NT-proBNP, hs-cTnI, and other biomarkers are performed at week 12 and every 12 weeks thereafter. Ambulatory cardiac monitoring is performed on weeks 48, 96, 144, 192 and 240 Cardiac magnetic resonance is monitored at weeks 48, 144 and 240. If a patient develops an LVEF <40% after the Week 2 visit, a repeat echocardiogram may be performed to confirm the initial finding (preferably within 24 hours). If the echocardiography findings are confirmed, the patient will undergo a ≥2-day drug holiday.
# Echocardiographic parameters to be measured at least include the left ventricular parameters (resting left ventricular outflow tract pressure gradient (LVOT-G), post-Valsalva LVOT-G, LVEF, LVFS, left ventricular strain, left ventricular end diastolic volume (LVEDV), left ventricular end systolic volume (LVESV), LV Stroke Volume), septal and free wall thickness, E/e′, E/A, LA volume.
# [3] = Phase 1 plasma aficamten pharmacokinetics (SAD, MAD, CYP2D6-PM, food-effect cohorts); type: in vivo, human; conditions: for CL/F: mean ± SD
# Procedure: CYP2D6 poor metabolizer cohort.
# CYP2D6 genotypes were determined at screening for all study participants; those identified as CYP2D6-PMs were excluded from the SAD and MAD cohorts but were invited to participate in the CYP2D6-PM cohort. The first individual in the CYP2D6-PM cohort was dosed after the SAD 25-mg cohort (FIG. 2). […] Nine participants were randomized (7:2) with a sentinel dosing group consisting of the first 2 participants treated.
# Food-effect cohort. […] Participants were randomized in a 1:1 ratio to 1 of 2 sequences: fasted/fed or fed/fasted.
# Pharmacokinetic analyses. For all study groups, blood samples for PK assessment were obtained pre-dose, up to 12 times daily on day 1, and then at regular intervals throughout the study. Blood samples were collected according to the following schedule: SAD Cohorts: Day 1: pre-dose and 0.25, 0.5, 1, 1.5, 2, 2.5, 3, 4, 6, 8, 12, 16, 24, 36, 48, 72, 96, and 216 h post dose. […] CYPD6-PM Cohort: Day 1: pre-dose and 0.25, 0.5, 1, 1.5, 2, 2.5, 3, 4, 6, 8, 12, 16, 24, 36, 48, 72, 96, 216, 312, and 552 h post dose. Food-Effect Cohort: Day 1: pre-dose and 0.25, 0.5, 1, 1.5, 2, 2.5, 3, 4, 6, 8, 12, 16, 24, 36, 48, 72, 96, 144, and 216 h post dose. Standard non-compartmental methods were used to calculate PK parameters using Phoenix® WinNonlin® Version 7.0; actual sample collection times were utilized.
# For the MAD cohort, the parameters were AUC24 and Cmax on day 1, plus AUC to the […] (AUCtau) and Cmax on day 14 or 17. The statistical linear relationship between the ln-transformed PK parameters and the ln-transformed dose was verified by including the quadratic (ln Dose)^2 and cubic (ln Dose)^3 effects. […] The dose-proportionality analysis was performed using SAS® PROC MIXED.
# An analysis of variance (ANOVA) model was conducted separately for each dose level; day was included as the fixed effect. Helmert contrasts were developed such that each time-point was compared with the mean of the subsequent time-points.
# Sequence of cardiac myosin (P12883 whole entry): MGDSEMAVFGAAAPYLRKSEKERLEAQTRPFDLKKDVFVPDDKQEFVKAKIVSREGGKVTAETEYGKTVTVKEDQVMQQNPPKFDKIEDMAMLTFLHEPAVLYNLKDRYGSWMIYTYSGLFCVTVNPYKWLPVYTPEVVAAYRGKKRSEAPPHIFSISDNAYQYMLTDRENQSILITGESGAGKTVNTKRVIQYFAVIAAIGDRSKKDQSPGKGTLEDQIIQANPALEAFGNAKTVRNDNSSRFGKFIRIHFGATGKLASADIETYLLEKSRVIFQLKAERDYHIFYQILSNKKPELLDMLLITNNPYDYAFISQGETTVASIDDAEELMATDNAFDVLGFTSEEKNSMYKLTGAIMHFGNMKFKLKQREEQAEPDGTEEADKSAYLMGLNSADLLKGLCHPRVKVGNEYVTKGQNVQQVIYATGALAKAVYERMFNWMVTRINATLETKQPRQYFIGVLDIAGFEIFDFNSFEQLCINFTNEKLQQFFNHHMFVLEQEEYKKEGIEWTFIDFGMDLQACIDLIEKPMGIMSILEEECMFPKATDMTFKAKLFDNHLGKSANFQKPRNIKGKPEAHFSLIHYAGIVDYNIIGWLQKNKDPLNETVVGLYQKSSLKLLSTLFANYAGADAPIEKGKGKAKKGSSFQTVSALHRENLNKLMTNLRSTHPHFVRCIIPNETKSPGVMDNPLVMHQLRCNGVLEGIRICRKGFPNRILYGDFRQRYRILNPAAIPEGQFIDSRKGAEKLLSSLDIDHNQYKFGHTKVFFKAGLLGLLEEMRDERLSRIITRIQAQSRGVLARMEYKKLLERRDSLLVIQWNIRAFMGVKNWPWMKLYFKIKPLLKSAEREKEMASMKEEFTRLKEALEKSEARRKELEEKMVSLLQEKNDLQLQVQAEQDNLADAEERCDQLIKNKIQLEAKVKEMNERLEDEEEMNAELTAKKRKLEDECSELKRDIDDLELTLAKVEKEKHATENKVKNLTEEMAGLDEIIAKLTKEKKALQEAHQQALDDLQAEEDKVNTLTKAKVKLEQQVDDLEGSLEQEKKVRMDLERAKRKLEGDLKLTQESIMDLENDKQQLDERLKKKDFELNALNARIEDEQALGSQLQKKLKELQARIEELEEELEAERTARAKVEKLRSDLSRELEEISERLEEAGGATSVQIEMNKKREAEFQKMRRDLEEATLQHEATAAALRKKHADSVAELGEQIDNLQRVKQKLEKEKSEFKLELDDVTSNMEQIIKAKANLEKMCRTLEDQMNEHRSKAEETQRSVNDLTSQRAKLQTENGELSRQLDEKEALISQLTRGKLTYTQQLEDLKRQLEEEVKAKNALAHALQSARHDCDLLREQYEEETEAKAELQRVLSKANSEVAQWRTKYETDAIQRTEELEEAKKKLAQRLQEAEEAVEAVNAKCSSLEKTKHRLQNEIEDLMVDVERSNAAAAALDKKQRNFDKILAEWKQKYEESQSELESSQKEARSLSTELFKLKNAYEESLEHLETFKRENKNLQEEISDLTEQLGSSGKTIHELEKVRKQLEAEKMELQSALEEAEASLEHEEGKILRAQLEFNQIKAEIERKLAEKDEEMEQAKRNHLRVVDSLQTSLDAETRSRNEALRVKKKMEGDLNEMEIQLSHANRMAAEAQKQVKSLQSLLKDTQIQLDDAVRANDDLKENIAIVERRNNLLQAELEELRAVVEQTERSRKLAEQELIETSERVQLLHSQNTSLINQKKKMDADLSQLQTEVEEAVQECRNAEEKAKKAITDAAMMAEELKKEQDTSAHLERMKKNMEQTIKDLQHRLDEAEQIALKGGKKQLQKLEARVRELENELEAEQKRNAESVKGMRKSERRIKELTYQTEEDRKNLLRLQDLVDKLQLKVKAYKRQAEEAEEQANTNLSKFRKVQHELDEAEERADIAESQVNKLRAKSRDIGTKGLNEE
# Sequence of cardiac myosin (P08590 whole entry partner): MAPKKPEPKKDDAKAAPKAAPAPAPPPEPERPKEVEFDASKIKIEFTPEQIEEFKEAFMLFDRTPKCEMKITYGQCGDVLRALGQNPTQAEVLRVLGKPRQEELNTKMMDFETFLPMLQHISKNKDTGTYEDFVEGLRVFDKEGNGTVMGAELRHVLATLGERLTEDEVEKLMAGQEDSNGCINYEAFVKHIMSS
# Sequence of cardiac myosin (P10916 whole entry partner): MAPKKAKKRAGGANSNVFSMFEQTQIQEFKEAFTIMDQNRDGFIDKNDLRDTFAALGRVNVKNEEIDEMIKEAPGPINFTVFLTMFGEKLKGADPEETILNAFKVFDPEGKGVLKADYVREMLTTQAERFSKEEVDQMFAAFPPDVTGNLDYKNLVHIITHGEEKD
smiles,measurement,setting,value
"CCc1nc(-c2ccc3c(c2)CC[C@H]3NC(=O)c2cnn(C)c2)no1 [aficamten, (R)—N-(5-(5-ethyl-1,2,4-oxadiazol-3-yl)-2,3-dihydro-1H-inden-1-yl)-1-methyl-1H-pyrazole-4-carboxamide]",effect on left ventricular contractility,[1],reduced measures of left ventricular contractility
same,reduction in LVOT gradients over time,"[2]; Weeks 2-24, site reads, Example 3a",significant and sustained reductions in LVOT gradients
same,Δ LVEF,[2]; baseline to week 48,−5±3%
same,Δ Valsalva LVOT-G mean,[2]; baseline to week 48,−47 mmHg
same,ΔResting LVOT-G mean,[2]; baseline to week 48,−32 mmHg
same,reductions in LVEF over time,"[2]; through Week 24, Example 3a",minimal and stable reductions in LVEF
same,impact of food and CYP2D6-PM phenotype on pharmacokinetics,[3]; 10 mg single dose,Neither food nor CYP2D6-PM phenotype had a clinically meaningful impact on pharmacokinetics
same,steady state achieved by the end of day,[3]; 5-mg and 7.5-mg doses once daily,12 days
same,steady state achieved by the end of day,[3]; 10-mg dose once daily,10 days
same,CL/F,"[3]; CYP2D6 Poor Metabolizers, 10 mg single dose",3.6 ± 1.4 L/h
same,maximum time to maximum observed concentration across all participants,[3]; SAD cohorts,4.0 h
same,increase of Cmax when taken with food,"[3]; food-effect cohort, 10 mg",approximately 30%
same,CL/F,"[3]; food-effect cohort, 10 mg, Fasted (n = 4)",2.8 ± 0.6 L/h
same,CL/F,"[3]; food-effect cohort, 10 mg, Fed (n = 7)",3.1 ± 0.9 L/h
same,time within which steady state is achieved,[3]; once-daily dosing,≤ 2 weeks
same,CL/F,[3]; single oral dose 3 mg,4.2 ± 3.1 L/h
same,CL/F,[3]; single oral dose 10 mg,3.0 ± 0.7 L/h
same,CL/F,[3]; single oral dose 25 mg,3.6 ± 0.5 L/h
same,CL/F,[3]; single oral dose 40 mg,3.4 ± 0.6 L/h
same,CL/F,[3]; single oral dose 50 mg,3.8 ± 1.1 L/h
same,dose proportionality of plasma concentrations / exposure,[3]; single oral doses 1 mg to 50 mg,increased in a dose-proportional manner; also recorded: linear kinetics
